{
  "source": "ChEMBL document CHEMBL1201862",
  "about": "“PubChem BioAssay data set” (2004)",
  "key": {"[1]": {"experiment": "inhibitors of fibronectin matrix deposition, dose response, AH1F cells, Alexa488-FN fluorescence, cherry-picks (AID 1035475)", "format": "functional, cell-based"}, "Caspase-6": {"molecular_target": "T1, Caspase-6 (Homo sapiens, UniProt P55212)", "T1 sequence (P55212 whole entry)": "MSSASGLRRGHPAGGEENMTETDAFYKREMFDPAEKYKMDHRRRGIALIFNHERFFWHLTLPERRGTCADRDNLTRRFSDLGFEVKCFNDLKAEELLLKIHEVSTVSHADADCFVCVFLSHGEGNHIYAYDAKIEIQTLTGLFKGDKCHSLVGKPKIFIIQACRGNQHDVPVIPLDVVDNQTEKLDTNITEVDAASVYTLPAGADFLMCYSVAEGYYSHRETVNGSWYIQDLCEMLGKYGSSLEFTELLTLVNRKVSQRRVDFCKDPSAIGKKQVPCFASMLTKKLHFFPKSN", "experiment": "human caspase-6 inhibitors, dose response, biochemical, VEID-R110 fluorescence, dry powder retest (AID 743332)"}, "[2]": {"experiment": "Keap1-Nrf2 protein-protein interaction inhibitors, dose response, biochemical, fluorescence polarization, dry powder, set 2 (AID 651801)"}, "[3]": {"experiment": "Keap1-Nrf2 protein-protein interaction inhibitors, dose response, biochemical, fluorescence polarization, dry powder samples (AID 651798)"}, "[4]": {"molecular_target": "Potassium channel subfamily K member 3 (Homo sapiens, UniProt O14649)", "sequence (O14649 whole entry)": "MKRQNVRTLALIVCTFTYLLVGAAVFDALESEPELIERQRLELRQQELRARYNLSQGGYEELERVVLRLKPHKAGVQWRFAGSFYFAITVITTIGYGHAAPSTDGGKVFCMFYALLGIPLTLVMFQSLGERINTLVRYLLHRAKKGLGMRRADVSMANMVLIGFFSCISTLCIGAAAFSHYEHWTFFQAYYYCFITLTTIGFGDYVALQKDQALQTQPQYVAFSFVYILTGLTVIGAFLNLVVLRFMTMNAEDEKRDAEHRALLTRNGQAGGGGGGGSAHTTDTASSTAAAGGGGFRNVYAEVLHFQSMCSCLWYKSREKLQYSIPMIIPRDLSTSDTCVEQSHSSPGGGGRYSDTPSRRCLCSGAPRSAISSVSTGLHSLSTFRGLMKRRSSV", "experiment": "TASK1 (KCNK3) potassium channel inhibitors, SAR follow-up, CHO cells, FluxOR thallium flux (AID 652212)", "format": "functional"}, "[5]": {"molecular_target": "Potassium channel subfamily K member 9 (Homo sapiens, UniProt Q9NPC2)", "sequence (Q9NPC2 whole entry)": "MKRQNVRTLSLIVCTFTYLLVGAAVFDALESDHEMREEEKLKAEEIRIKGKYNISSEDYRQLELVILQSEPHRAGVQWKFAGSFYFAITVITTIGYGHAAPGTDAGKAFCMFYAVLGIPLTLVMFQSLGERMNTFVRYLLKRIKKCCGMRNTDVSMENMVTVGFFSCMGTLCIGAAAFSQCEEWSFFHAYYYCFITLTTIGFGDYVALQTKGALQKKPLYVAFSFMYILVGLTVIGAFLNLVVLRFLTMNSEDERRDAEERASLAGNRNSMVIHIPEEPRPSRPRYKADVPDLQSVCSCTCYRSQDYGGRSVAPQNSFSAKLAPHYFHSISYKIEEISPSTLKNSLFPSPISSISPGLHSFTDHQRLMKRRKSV", "experiment": "TASK3 (KCNK9) channel inhibitors, thallium flux, SAR follow-up, selectivity assay for TASK1 inhibitor project, cell-based, FluxOR thallium flux, concentration-response (AID 652211);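 further: potency is for inhibitors of the channel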", "format": "functional"}, "[6]": {"experiment": "Cytotoxicity screening for potential Inhibitors of Bacterial Capsule Biogenesis (4).", "format": "functional"}, "[7]": {"experiment": "Keap1 Kelch-Nrf2 peptide binding inhibitors, dose response, biochemical, fluorescence polarization, dry powder, set 3 (AID 651806)"}, "[8]": {"molecular_target": "Delta-type opioid receptor (Homo sapiens, UniProt P41143)", "sequence (P41143 whole entry)": "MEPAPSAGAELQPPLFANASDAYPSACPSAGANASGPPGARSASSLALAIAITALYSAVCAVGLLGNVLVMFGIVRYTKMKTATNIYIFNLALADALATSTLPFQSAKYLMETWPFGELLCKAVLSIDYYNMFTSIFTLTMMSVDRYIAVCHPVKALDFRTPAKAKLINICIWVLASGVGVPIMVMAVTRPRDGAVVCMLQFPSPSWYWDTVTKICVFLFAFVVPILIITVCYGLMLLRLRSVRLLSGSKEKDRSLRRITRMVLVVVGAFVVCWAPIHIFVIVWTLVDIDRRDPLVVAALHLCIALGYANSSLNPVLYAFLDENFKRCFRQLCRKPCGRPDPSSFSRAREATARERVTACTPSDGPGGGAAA", "experiment": "Late-stage results from the probe development effort to identify antagonists of OPRK1: fluorescence-based cell-based dose response OPRD1 counterscreen, Set 2.", "format": "functional"}, "[9]": {"molecular_target": "Kappa-type opioid receptor (Homo sapiens, UniProt P41145)", "sequence (P41145 whole entry)": "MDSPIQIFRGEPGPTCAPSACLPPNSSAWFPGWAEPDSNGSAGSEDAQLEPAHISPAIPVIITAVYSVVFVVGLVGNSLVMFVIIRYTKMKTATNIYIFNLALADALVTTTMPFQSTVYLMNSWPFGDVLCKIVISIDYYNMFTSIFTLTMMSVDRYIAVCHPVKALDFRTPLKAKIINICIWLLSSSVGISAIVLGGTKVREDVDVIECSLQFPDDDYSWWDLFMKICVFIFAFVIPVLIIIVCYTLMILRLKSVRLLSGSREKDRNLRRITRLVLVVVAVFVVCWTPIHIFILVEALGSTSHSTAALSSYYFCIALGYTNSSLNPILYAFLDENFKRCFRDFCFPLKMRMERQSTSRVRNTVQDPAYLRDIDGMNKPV", "experiment": "Late-stage fluorescence-based cell-based dose response assay for antagonists of kappa opioid receptor 1 (OPRK1).", "format": "functional"}, "[10]": {"molecular_target": "Sphingosine 1-phosphate receptor 1 (Homo sapiens, UniProt P21453)", "sequence (P21453 whole entry)": "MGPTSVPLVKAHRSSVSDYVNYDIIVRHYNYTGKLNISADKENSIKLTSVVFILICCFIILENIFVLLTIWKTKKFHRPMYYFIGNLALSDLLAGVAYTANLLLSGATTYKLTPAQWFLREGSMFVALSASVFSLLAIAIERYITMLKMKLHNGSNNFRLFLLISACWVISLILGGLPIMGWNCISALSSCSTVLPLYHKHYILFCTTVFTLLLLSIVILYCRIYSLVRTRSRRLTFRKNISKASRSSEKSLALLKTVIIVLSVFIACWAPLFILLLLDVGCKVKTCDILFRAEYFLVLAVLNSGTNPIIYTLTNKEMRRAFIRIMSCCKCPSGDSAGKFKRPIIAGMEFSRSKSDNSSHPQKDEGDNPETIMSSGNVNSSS", "experiment": "Late-stage counterscreen for antagonists of kappa opioid receptor 1 (OPRK1): fluorescence-based cell-based dose response assay to identify antagonists of Sphingosine 1-Phosphate Receptor 1 (S1P1).", "format": "functional"}, "Mu-type opioid receptor": {"molecular_target": "Mu-type opioid receptor (Homo sapiens, UniProt P35372)", "sequence (P35372 whole entry)": "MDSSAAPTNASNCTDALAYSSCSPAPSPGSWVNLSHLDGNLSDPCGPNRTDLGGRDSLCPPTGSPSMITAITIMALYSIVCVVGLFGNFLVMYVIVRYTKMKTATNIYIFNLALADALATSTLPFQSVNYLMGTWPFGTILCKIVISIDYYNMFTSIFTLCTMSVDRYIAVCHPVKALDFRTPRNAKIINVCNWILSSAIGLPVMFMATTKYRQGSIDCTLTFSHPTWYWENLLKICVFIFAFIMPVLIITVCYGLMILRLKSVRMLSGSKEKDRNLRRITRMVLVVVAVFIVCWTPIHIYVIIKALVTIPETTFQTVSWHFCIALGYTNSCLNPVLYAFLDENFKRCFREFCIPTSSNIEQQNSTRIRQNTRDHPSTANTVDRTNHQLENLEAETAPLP", "experiment": "Late-stage results from the probe development effort to identify antagonists of OPRK1: luminescence-based cell-based dose response OPRM1 counterscreen, Set 2.", "format": "functional"}, "[11]": {"molecular_target": "Metabotropic glutamate receptor 3 (Rattus norvegicus, UniProt P31422)", "sequence (P31422 whole entry)": "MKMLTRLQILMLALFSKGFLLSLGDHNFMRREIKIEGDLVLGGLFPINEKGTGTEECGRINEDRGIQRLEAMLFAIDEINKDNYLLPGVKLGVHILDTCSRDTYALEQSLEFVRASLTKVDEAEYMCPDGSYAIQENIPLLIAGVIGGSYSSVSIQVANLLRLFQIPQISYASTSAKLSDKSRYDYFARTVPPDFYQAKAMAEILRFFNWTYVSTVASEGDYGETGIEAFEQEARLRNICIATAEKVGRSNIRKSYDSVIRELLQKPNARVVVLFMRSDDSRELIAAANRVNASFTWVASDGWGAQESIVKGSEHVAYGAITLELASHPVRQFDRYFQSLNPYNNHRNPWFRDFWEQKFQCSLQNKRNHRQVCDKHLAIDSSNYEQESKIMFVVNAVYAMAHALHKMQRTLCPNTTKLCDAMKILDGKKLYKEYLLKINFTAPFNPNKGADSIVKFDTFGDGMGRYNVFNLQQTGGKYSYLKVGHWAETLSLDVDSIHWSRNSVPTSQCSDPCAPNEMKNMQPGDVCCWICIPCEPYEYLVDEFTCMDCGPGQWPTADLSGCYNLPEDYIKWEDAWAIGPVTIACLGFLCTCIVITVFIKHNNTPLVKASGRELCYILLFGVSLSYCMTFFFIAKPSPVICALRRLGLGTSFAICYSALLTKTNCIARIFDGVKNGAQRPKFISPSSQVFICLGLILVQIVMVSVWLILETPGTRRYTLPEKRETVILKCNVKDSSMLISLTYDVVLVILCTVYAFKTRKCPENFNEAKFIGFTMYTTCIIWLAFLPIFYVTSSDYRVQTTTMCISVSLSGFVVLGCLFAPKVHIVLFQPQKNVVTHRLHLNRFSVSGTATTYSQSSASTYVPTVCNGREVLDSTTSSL", "experiment": "mGlu3 negative allosteric modulator potency, dose response, HEK/GIRK cells, thallium flux, rat (AID 651839)", "format": "functional"}, "[12]": {"experiment": "Late stage assay provider results from the probe development effort to identify inhibitors of the Plasmodium falciparum M18 Aspartyl Aminopeptidase (M18AAP): radiolabel-based cell-based dose response assay to identify compounds that inhibit P. falciparum growth in RBCs, Set 2..", "format": "functional"}, "[13]": {"experiment": "CEM21 cell cytotoxicity, dose response, cytotoxicity control, plate reader, dry powder (AID 687026)", "format": "functional, cell-based"}, "[14]": {"experiment": "growth inhibition of replicating M. tuberculosis, dose response, counter-screen, dry powder, IC90 (AID 651617)", "format": "functional", "details": "Mycobacterium tuberculosis"}, "[15]": {"experiment": "inhibitors of non-replicating M. tuberculosis, dose response, luciferase, dry powder (AID 651620)", "format": "functional", "details": "Mycobacterium tuberculosis"}, "[16]": {"experiment": "inhibitors of non-replicating M. tuberculosis, dose response, luciferase, dry powder (AID 651619)", "format": "functional", "details": "Mycobacterium tuberculosis"}, "[17]": {"experiment": "A549 cell cytotoxicity, dose response, cytotoxicity control, plate reader, cherry-pick, antagonist series (AID 743412)", "format": "functional, cell-based"}, "[18]": {"experiment": "LGR2 antagonists, dose response, cell-based, HEK293, CRE-luciferase reporter, cherry pick (AID 743342)", "format": "functional"}, "[19]": {"experiment": "YAP1 pathway inhibition via CTGF transcript levels, dose response, cell-based, DLD1 colon cancer, RT-qPCR, cherry-pick (AID 1053122)", "format": "functional", "details": "Cancer cell lines"}},
  "note": "Active and inactive are the calls of the source. Unless noted, the calls are words filed in the database; no cut-off is given here.",
  "data": [
    {"compound": "N#Cc1ccc(-c2ccc3c(c2)[C@@H]2[C@@H](CCN2S(=O)(=O)c2ccccc2F)[C@H](CO)N3)cc1", "values": [
      {"measurement": "AC50", "setting": "[1]", "result": "24.5 µM (active)"}
    ]},
    {"compound": "[O-][n+]1onc2c1CCc1c-2nn(-c2ccccc2)[n+]1[O-]", "values": [
      {"measurement": "AC50", "setting": "Caspase-6", "result": "22.9 µM (active)"}
    ]},
    {"compound": "O=C(O)C1CCCCC1C(=O)N1CCc2ccccc2C1CN1C(=O)c2ccccc2S1(=O)=O", "note": "(stereo unspecified)", "values": [
      {"measurement": "AC50", "setting": "[2]", "result": "78.9 µM (active)"},
      {"measurement": "AC50", "setting": "[3]", "result": "71.1 µM (active)"}
    ]},
    {"compound": "CCOc1ccccc1NC(=O)c1cccc(NC(=O)C2CCCCC2)c1", "values": [
      {"measurement": "IC50", "setting": "[4]", "result": "0.067 µM (active)"},
      {"measurement": "IC50", "setting": "[5]", "result": "1.3 µM (active)"}
    ]},
    {"compound": "CC(C)(C)OC(=O)Nc1nc2ccc(C(=O)Nc3ccnc(F)c3)cc2s1", "values": [
      {"measurement": "CC50", "setting": "[6]", "result": "> 300 µM (inactive)"}
    ]},
    {"compound": "O=C(O)[C@H]1CCCC[C@H]1C(=O)N1CCc2ccccc2[C@H]1CNS(=O)(=O)c1ccc([N+](=O)[O-])cc1", "values": [
      {"measurement": "AC50", "setting": "[7]", "result": "88.3 µM (active)"}
    ]},
    {"compound": "COC(=O)c1cc(-c2ccc(OC)cc2)c(-c2ccc(OC)cc2)s1", "values": [
      {"measurement": "IC50", "setting": "[8]", "result": "19.8 µM (inactive)"},
      {"measurement": "IC50", "setting": "[9]", "result": "1.58 µM (active)"},
      {"measurement": "IC50", "setting": "[10]", "result": "> 50 µM (inactive)"},
      {"measurement": "IC50", "setting": "Mu-type opioid receptor", "result": "> 50 µM (inactive)"}
    ]},
    {"compound": "Cc1cc2cc(C#Cc3ccc(C(=O)N4CCCC(CO)C4)cc3)ccc2o1", "note": "(stereo unspecified)", "values": [
      {"measurement": "IC50", "setting": "[11]", "result": 3.91, "unit": "µM"}
    ]},
    {"compound": "COc1cc(Br)c(CCNc2ccnc3ccccc23)cc1OC", "values": [
      {"measurement": "IC50", "setting": "[12]", "result": "0.45 µM (active)"}
    ]},
    {"compound": "CCCOc1ccc(S(=O)(=O)NCc2ccncc2)c2ccccc12", "values": [
      {"measurement": "AC50", "setting": "[13]", "result": "> 70 µM (inactive)"}
    ]},
    {"compound": "Fc1ccc(-c2nnc(SCc3ccccn3)o2)cc1", "values": [
      {"measurement": "IC90", "setting": "[14]", "result": "62 µM (active)"},
      {"measurement": "IC90", "setting": "[15]", "result": "4 µM (active)"},
      {"measurement": "IC90", "setting": "[16]", "result": "4 µM (active)"}
    ]},
    {"compound": "C[C@H](CO)N1C[C@H](C)[C@H](CN(C)C(=O)Nc2ccc(F)cc2)OCCCC[C@H](C)Oc2ccc(NC(=O)Nc3ccc(F)cc3)cc2C1=O", "values": [
      {"measurement": "AC50", "setting": "[17]", "result": "> 47 µM (inactive)"},
      {"measurement": "AC50", "setting": "[18]", "result": "16.1 µM (active)"}
    ]},
    {"compound": "COc1ccccc1NC(=O)N1CCCCN2[C@@H](CO)[C@H](c3ccc(-c4cccc(C#N)c4)cc3)[C@@H]2C1", "values": [
      {"measurement": "AC50", "setting": "[19]", "result": "0.918 µM (active)"}
    ]}
  ]
}
